# Reference: patent US6875865B1, “Selected derivatives of K-252a” (Cephalon, Inc., priority 1996, dated 2005)
# Tested on: basal forebrain cultures
# Assay: Basal Forebrain ChAT Activity Assay
# Assay type: cell-based, rat
# Details: day six, concentration not given, tested between 10 nM and 500 nM, at least 120% of control = active
# Procedure: Compounds of the invention were assessed for their ability to promote survival and increase in ChAT activity in basal forebrain cultures. ChAT activity in these cultures is a biochemical marker for the cholinergic neurons (less than 5% of the cells in culture), which represent the major cholinergic input to the hippocampal formation, olfactory nucleus, interpeduncular nucleus, cortex, amygdala, and parts of the thalamus. […] The basal forebrain was dissected from embryonic day 17 or 18 rat embryos and the cells were […] with Dispase™ (neutral protease, Collaborative Research). Neurons were plated at 5×10^4 cells/well (1.5×10^5 cells/cm^2) in wells of 96-well plates previously coated with […] and laminin. Cells were cultured in serum-free N2 medium containing 0.05% bovine serum albumin (BSA) (Bottenetein et al., supra) at 37° in a humidified atmosphere of 5% CO2/95% air. ChAT activity was measured in vitro at day six, using a modification of the Formum procedure (supra) according to McManaman et al. (supra) and Glicksman et al. (J. Neurochem. 61:210-221, 1993).
# (§1) Compounds which increased ChAT activity at least 120% of the control activity are considered active.
row,Structure (SMILES),ChAT Activity maximum efficacy % of Control (conc)
1,COC(=O)C1(O)CC2OC1(C)n1c3ccc(CCN4CCCCC4)cc3c3c4c(c5c6cc(CCN7CCCCC7)ccc6n2c5c31)C(=O)NC4 (stereo not drawn) [Compound 75],<120 % of Control
2,COC(=O)C1(O)CC2OC1(C)n1c3ccc(C(=O)CSc4ncccn4)cc3c3c4c(c5c6cc(C(=O)CSc7ncccn7)ccc6n2c5c31)C(=O)NC4 (stereo not drawn) [Compound 49],<120 % of Control
3,CNCCc1ccc2c(c1)c1c3c(c4c5cc(CCNC)ccc5n5c4c1n2C1CC(O)(C(=O)OC)C5(C)O1)CNC3=O (stereo not drawn) [Compound 79],<120 % of Control
4,CCN(CC)CCCc1ccc2c(c1)c1c3c(c4c5cc(CCCN(CC)CC)ccc5n5c4c1n2C1CC(O)(C(=O)OC)C5(C)O1)CNC3=O (stereo not drawn) [Compound 84],<120 % of Control
5,COC(=O)C1(O)CC2OC1(C)n1c3ccc(CCN4CCOCC4)cc3c3c4c(c5c6cc(CCN7CCOCC7)ccc6n2c5c31)C(=O)NC4 (stereo not drawn) [Compound 76],<120 % of Control
6,COC(=O)C1(O)CC2OC1(C)n1c3ccc(CCSc4ccncc4)cc3c3c4c(c5c6cc(CCSc7ccncc7)ccc6n2c5c31)C(=O)NC4 (stereo not drawn) [Compound 93],<120 % of Control
7,COC(=O)C1(O)CC2OC1(C)n1c3ccc(CCCN4CCOCC4)cc3c3c4c(c5c6cc(CCCN7CCOCC7)ccc6n2c5c31)C(=O)NC4 (stereo not drawn) [Compound 83],<120 % of Control
8,COC(=O)C1(O)CC2OC1(C)n1c3ccc(CCI)cc3c3c4c(c5c6cc(CCI)ccc6n2c5c31)C(=O)NC4 (stereo not drawn) [Compound 70a],<120 % of Control
9,CCOC(=O)CCSCCc1ccc2c(c1)c1c3c(c4c5cc(CCSCCC(=O)OCC)ccc5n5c4c1n2C1CC(O)(C(=O)OC)C5(C)O1)CNC3=O (stereo not drawn) [Compound 90],<120 % of Control
10,COC(=O)C1(O)CC2OC1(C)n1c3ccc(CCNCc4ccc(OC)cc4)cc3c3c4c(c5c6cc(CCNCc7ccc(OC)cc7)ccc6n2c5c31)C(=O)NC4 (stereo not drawn) [Compound 80],<120 % of Control
11,COC(=O)CSCCc1ccc2c(c1)c1c3c(c4c5cc(CCSCC(=O)OC)ccc5n5c4c1n2C1CC(O)(C(=O)OC)C5(C)O1)CNC3=O (stereo not drawn) [Compound 89],<120 % of Control
12,COC(=O)C1(O)CC2OC1(C)n1c3ccc(CCCSc4nc5ccccc5s4)cc3c3c4c(c5c6cc(CCCSc7nc8ccccc8s7)ccc6n2c5c31)C(=O)NC4 (stereo not drawn) [Compound 96],<120 % of Control
13,COC(=O)C1(O)CC2OC1(C)n1c3ccc(COCCN(C)C)cc3c3c4c(c5c6cc(C=Cc7ccccn7)ccc6n2c5c31)C(=O)NC4 (stereo not drawn) [Compound 104],<120 % of Control
14,COC(=O)C1(O)CC2OC1(C)n1c3ccc(CCN(C)CCO)cc3c3c4c(c5c6cc(CCN(C)CCO)ccc6n2c5c31)C(=O)NC4 (stereo not drawn) [Compound 78],<120 % of Control

# Same assay, conditions: day six, maximum efficacy at 50 nM
row,Structure (SMILES),ChAT Activity maximum efficacy % of Control (conc)
1,CCSCc1ccc2c(c1)c1c3c(c4c5cc(C=Cc6ccccn6)ccc5n5c4c1n2C1(C)OC5CC1(O)C(=O)OC)C(=O)NC3 (stereo not drawn) [Compound 105],136 (50 nM) % of Control
2,COC(=O)C1(O)CC2OC1(C)n1c3ccccc3c3c4c(c5c6cc(C#CCN(C)C)ccc6n2c5c31)C(=O)NC4 (stereo not drawn) [Compound 61],166 (50 nM) % of Control
3,CCOCc1ccc2c(c1)c1c3c(c4c5cc(C=Cc6ccccn6)ccc5n5c4c1n2C1(C)OC5CC1(O)C(=O)OC)C(=O)NC3 (stereo not drawn) [Compound 103],154 (50 nM) % of Control
4,COCc1ccc2c(c1)c1c3c(c4c5cc(C=Cc6ccccn6)ccc5n5c4c1n2C1(C)OC5CC1(O)C(=O)OC)C(=O)NC3 (stereo not drawn) [Compound 102],176 (50 nM) % of Control

# Same assay, conditions: day six, maximum efficacy at 250 nM
row,Structure (SMILES),ChAT Activity maximum efficacy % of Control (conc)
1,COC(=O)C1(O)CC2OC1(C)n1c3ccc(C=CCN(C)C)cc3c3c4c(c5c6cc(C=CCN(C)C)ccc6n2c5c31)C(=O)NC4 (stereo not drawn) [Compound 64],165 (250 nM) % of Control
2,COC(=O)C1(O)CC2OC1(C)n1c3ccc(CCCN4CCCCC4)cc3c3c4c(c5c6cc(CCCN7CCCCC7)ccc6n2c5c31)C(=O)NC4 (stereo not drawn) [Compound 82],150 (250 nM) % of Control
3,COC(=O)C1(O)CC2OC1(C)n1c3ccc(CSCCN(C)C)cc3c3c4c(c5c6cc(C=Cc7ccccn7)ccc6n2c5c31)C(=O)NC4 (stereo not drawn) [Compound 106],135 (250 nM) % of Control
4,COC(=O)C1(O)CC2OC1(C)n1c3ccc(C(=O)CSc4ccncc4)cc3c3c4c(c5c6ccccc6n2c5c31)C(=O)NC4 (stereo not drawn) [Compound 42b],164 (250 nM) % of Control
5,COC(=O)C1(O)CC2OC1(C)n1c3ccc(CCCOC=O)cc3c3c4c(c5c6cc(CCCOC=O)ccc6n2c5c31)C(=O)NC4 (stereo not drawn) [Compound 73b],171 (250 nM) % of Control
6,CCN(CC)CCc1ccc2c(c1)c1c3c(c4c5cc(CCN(CC)CC)ccc5n5c4c1n2C1CC(O)(C(=O)OC)C5(C)O1)CNC3=O (stereo not drawn) [Compound 77],132 (250 nM) % of Control
7,COC(=O)C1(O)CC2OC1(C)n1c3ccc(CCCO)cc3c3c4c(c5c6cc(CCCO)ccc6n2c5c31)C(=O)NC4 (stereo not drawn) [Compound 73c],190 (250 nM) % of Control

# Tested on: dissociated spinal cord cultures
# Assay: Spinal Cord ChAT Activity Assay
# Assay type: cell-based, rat
# Details: concentration not given, at least 120% of control = active
# Procedure: The effect of selected ring substituted K-252a derivatives on CHAT activity was assayed in dissociated spinal cord cultures prepared from fetal rats using the procedure described in U.S. Pat. No. 5,461,146, Columns 26 and 27, Examples 6 and 7. ChAT is the enzyme that catalyzes the synthesis of the neurotransmitter acetylcholine, and it is a specific biochemical marker for cholinergic neurons. In the spinal cord, the large majority of cholinergic neurons are motor neurons. Assay of this enzyme may thus be used as an indication of the effects of a factor, or actors, on the survival of cholinergic neurons and/or regulation of this enzyme.
# as §1
row,Structure (SMILES),ChAT Activity maximum efficacy % of Control (conc)
1,COC(=O)CCc1ccc2c(c1)c1c3c(c4c5cc(CCC(=O)OC)ccc5n5c4c1n2C1CC(O)(C(=O)OC)C5(C)O1)CNC3=O (stereo not drawn) [Compound 139],<120 % of Control

# Same assay, conditions: maximum efficacy at 30 nM
row,Structure (SMILES),ChAT Activity maximum efficacy % of Control (conc)
1,COCc1ccc2c(c1)c1c3c(c4c5cc(C=Cc6ccccn6)ccc5n5c4c1n2C1CC(O)(C(=O)OC)C5(C)O1)CNC3=O (stereo not drawn) [Compound 116],231 (30 nM) % of Control
2,CCSCc1ccc2c(c1)c1c3c(c4c5cc(C=Cc6ccccn6)ccc5n5c4c1n2C1CC(O)(C(=O)OC)C5(C)O1)CNC3=O (stereo not drawn) [Compound 118],249 (30 nM) % of Control
3,COC(=O)C=Cc1ccc2c(c1)c1c3c(c4c5cc(C=CC(=O)OC)ccc5n5c4c1n2C1CC(O)(C(=O)OC)C5(C)O1)CNC3=O (stereo not drawn) [Compound 1],153 (30 nM) % of Control
4,CCOCc1ccc2c(c1)c1c3c(c4c5cc(C=Cc6ccccn6)ccc5n5c4c1n2C1CC(O)(C(=O)OC)C5(C)O1)CNC3=O (stereo not drawn) [Compound 117],232 (30 nM) % of Control

# Same assay, conditions: maximum efficacy at 300 nM
row,Structure (SMILES),ChAT Activity maximum efficacy % of Control (conc)
1,CCOC(=O)CCc1ccc2c(c1)c1c3c(c4c5cc(CCC(=O)OCC)ccc5n5c4c1n2C1CC(O)(C(=O)OC)C5(C)O1)CNC3=O (stereo not drawn) [Compound 140],156 (300 nM) % of Control
2,CCC=Cc1ccc2c(c1)c1c3c(c4c5cc(C=Cc6ccccn6)ccc5n5c4c1n2C1CC(O)(C(=O)OC)C5(C)O1)CNC3=O (stereo not drawn) [Compound 122],279 (300 nM) % of Control
3,COCOCc1ccc2c(c1)c1c3c(c4c5ccccc5n5c4c1n2C1CC(O)(C(=O)OC)C5(C)O1)CNC3=O (stereo not drawn) [Compound 154],177 (300 nM) % of Control
4,COC(=O)C1(O)CC2OC1(C)n1c3ccc(CCc4ccncc4)cc3c3c4c(c5c6cc(CCc7ccncc7)ccc6n2c5c31)C(=O)NC4 (stereo not drawn) [Compound 146],153 (300 nM) % of Control
5,COC(=O)C1(O)CC2OC1(C)n1c3ccc(CCc4ccccn4)cc3c3c4c(c5c6cc(Br)ccc6n2c5c31)C(=O)NC4 (stereo not drawn) [Compound 143],264 (300 nM) % of Control
6,COC(=O)C1(O)CC2OC1(C)n1c3ccc(C=Cc4ccccn4)cc3c3c4c(c5c6cc(CSc7nc8ccccc8[nH]7)ccc6n2c5c31)C(=O)NC4 (stereo not drawn) [Compound 120],257 (300 nM) % of Control
7,COC(=O)C1(O)CC2OC1(C)n1c3ccc(CCOC=O)cc3c3c4c(c5c6cc(CCOC=O)ccc6n2c5c31)C(=O)NC4 (stereo not drawn) [Compound 70b],169 (300 nM) % of Control
8,COCOCc1ccc2c(c1)c1c3c(c4c5cc(COCOC)ccc5n5c4c1n2C1CC(O)(C(=O)OC)C5(C)O1)CNC3=O (stereo not drawn) [Compound 155],197 (300 nM) % of Control
9,COC(=O)C1(O)CC2OC1(C)n1c3ccc(C=Cc4ccncc4)cc3c3c4c(c5c6cc(C=Cc7ccncc7)ccc6n2c5c31)C(=O)NC4 (stereo not drawn) [Compound 145],129 (300 nM) % of Control
